Our source for the refractive index values is the NIST ThermoML archive (doi:10.1016/j.jct.2006.12.004).

± gives the expanded uncertainty stated by the source.

The nature of this data set: refractive index (Na D-line) (dimensionless). The note with it: 293.1 K; 101.33 kPa; Liquid; Standard Abbe refractometry.
For orientation: refractive index means a measure of how strongly the sample bends light. Regarding `Cc1ccccc1` [toluene], the refractive index amounted to 1.4873 ± 0.0007.

Regarding `CCCCCCC` [heptane], the refractive index was 1.3882 ± 0.0007.

With `O=CN1CCOCC1` [N-formylmorpholine], the refractive index was found to be 1.484 ± 0.0007.

For the compound `c1ccccc1` [benzene], the refractive index is reported as 1.5024 ± 0.0007.

`Cc1cccc(C)c1` [1,3-dimethylbenzene]: the refractive index came to 1.4943 ± 0.0007.
